Laboratory results: patent US20250353842A1, “BICYCLIC AMINE CDK12 INHIBITORS” (Incyte Corporation, priority 2022, published 2025)

Target: CDK12 complexed with Cyclin K (Homo sapiens (Human), UniProt Q9NYV4)
Assay: CDK enzymatic assay (HTRF, LANCE Ultra kinase assay)
Assay type: biochemical
Settings: 60 minutes pre-incubation, 1 mM ATP
In short: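 GST-tagged human CDK12 co-expressed with full-length Cyclin K in baculovirus, pre-incubated 60 min with compound, then 1 mM ATP and 50 nM ULight-4E-BP1 peptide (final) in pH 7.5 HEPES buffer for 60-90 min at room temperature. EDTA/Eu-anti-phospho-4E-BP1 stop; 665/620 nm HTRF ratio normalized to DMSO and no-enzyme controls, IC50 from 3- or 4-parameter fit.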

Sequence of CDK12 complexed with Cyclin K (Q9NYV4 whole entry): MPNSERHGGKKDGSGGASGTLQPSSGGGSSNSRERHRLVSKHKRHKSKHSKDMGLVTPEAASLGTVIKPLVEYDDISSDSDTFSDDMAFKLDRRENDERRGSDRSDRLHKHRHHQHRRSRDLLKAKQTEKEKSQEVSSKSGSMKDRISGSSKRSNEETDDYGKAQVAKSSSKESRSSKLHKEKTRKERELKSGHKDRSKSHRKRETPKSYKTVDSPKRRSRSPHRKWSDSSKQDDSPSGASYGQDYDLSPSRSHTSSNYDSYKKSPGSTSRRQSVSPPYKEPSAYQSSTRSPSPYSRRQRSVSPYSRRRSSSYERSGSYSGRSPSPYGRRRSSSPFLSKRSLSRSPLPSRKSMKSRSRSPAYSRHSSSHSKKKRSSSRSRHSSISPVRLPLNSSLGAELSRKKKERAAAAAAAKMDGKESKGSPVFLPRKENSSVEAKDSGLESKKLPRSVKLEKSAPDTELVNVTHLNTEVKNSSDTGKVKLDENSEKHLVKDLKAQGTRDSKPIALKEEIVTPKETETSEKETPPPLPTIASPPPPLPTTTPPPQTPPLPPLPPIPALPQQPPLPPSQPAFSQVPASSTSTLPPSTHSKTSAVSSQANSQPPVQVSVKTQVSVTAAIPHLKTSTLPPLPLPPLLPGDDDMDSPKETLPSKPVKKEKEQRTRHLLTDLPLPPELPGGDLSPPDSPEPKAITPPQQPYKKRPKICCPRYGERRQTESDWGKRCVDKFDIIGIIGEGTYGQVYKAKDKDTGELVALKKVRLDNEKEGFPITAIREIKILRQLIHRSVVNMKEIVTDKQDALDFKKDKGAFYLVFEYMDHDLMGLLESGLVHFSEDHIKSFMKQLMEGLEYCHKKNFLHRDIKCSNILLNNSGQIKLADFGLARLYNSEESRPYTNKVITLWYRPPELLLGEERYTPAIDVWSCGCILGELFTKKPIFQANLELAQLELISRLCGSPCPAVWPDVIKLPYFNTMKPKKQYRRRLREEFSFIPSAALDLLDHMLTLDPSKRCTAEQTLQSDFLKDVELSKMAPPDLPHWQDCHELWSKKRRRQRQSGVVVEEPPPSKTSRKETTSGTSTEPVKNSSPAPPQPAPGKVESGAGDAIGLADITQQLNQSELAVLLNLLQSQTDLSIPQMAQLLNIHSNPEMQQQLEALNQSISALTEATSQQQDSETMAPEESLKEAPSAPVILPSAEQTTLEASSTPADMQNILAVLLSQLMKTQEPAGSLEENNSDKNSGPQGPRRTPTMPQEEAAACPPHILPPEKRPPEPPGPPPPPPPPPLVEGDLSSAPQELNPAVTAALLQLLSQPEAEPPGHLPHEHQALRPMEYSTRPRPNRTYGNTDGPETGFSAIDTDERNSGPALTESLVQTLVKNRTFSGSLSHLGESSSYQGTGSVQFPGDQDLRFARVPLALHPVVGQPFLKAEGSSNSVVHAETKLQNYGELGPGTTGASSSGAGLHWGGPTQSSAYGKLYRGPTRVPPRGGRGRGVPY
Sequence of CDK12 complexed with Cyclin K (O75909 whole entry partner): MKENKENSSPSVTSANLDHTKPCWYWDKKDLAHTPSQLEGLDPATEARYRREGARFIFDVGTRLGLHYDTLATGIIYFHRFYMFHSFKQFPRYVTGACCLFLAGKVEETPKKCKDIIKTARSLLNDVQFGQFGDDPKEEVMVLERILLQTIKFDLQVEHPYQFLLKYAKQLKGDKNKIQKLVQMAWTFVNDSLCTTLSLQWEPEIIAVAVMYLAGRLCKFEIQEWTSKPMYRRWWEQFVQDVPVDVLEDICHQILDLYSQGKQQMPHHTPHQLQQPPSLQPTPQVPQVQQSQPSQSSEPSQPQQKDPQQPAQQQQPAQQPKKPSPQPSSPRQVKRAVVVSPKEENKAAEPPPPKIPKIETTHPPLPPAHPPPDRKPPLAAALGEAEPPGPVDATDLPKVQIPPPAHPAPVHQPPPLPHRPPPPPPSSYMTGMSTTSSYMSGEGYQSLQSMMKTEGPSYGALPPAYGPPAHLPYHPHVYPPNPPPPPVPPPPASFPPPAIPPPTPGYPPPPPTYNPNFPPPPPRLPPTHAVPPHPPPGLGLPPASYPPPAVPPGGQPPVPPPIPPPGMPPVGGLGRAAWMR

Compound	IC50
CN1CCN(c2cnc3c(c2)ncn3[C@H]2CCC[C@@H](Nc3ncc(C#N)c(-c4cnn(CC(F)F)c4)n3)C2)CC1 [Example 75, 4-(1-(2,2-Difluoroethyl)-1H-pyrazol-4-yl)-2-(((1R,3S)-3-(6-(4-methylpiperazin-1-yl)-3H-imidazo[4,5-b]pyridin-3-yl)cyclohexyl)amino)pyrimidine-5-carbonitrile]	< 50 nM
N#Cc1cnc(N[C@@H]2CCC[C@H](n3cnc4cc(N5CCOCC5)cnc43)C2)nc1-c1cnn(CC(F)F)c1 [Example 76, 4-(1-(2,2-Difluoroethyl)-1H-pyrazol-4-yl)-2-(((1R,3S)-3-(6-morpholino-3H-imidazo[4,5-b]pyridin-3-yl)cyclohexyl)amino)pyrimidine-5-carbonitrile]	< 50 nM
Cc1ccncc1-c1cnc2c(c1)ncn2[C@H]1CCC[C@@H](Nc2ncc(C#N)c(-c3cnn(CC(F)F)c3)n2)C1 [Example 77, 4-(1-(2,2-Difluoroethyl)-1H-pyrazol-4-yl)-2-(((1R,3S)-3-(6-(4-methylpyridin-3-yl)-3H-imidazo [4,5-b]pyridin-3-yl)cyclohexyl)amino)pyrimidine-5-carbonitrile]	50 to 500 nM
Cc1nccc2c1ncn2[C@H]1CCC[C@@H](Nc2ncc(C#N)c(-c3cnn(CC(F)F)c3)n2)C1 [Example 85, 4-(1-(2,2-Difluoroethyl)-1H-pyrazol-4-yl)-2-(((1R,3S)-3-(4-methyl-1H-imidazo[4,5-c]pyridin-1-yl)cyclohexyl)amino)pyrimidine-5-carbonitrile]	< 50 nM
N#Cc1ccc2c(c1)ncn2[C@H]1CCC[C@@H](Nc2ncc(C#N)c(-c3cnn(CC(F)F)c3)n2)C1 [Example 86, 1-((1S,3R)-3-((5-Cyano-4-(1-(2,2-difluoroethyl)-1H-pyrazol-4-yl)pyrimidin-2-yl)amino)cyclohexyl)-1H-benzo[d]imidazole-5-carbonitrile]	< 50 nM
N#Cc1cc2ncn([C@H]3CCC[C@@H](Nc4ncc(C#N)c(-c5cnn(CC(F)F)c5)n4)C3)c2cn1 [Example 88, 3-((1S,3R)-3-((5-Cyano-4-(1-(2,2-difluoroethyl)-1H-pyrazol-4-yl)pyrimidin-2-yl)amino)cyclohexyl)-3H-imidazo[4,5-c]pyridine-6-carbonitrile]	< 50 nM
Cc1c(-c2nc(N[C@@H]3CCC[C@H](n4cnc5cc(C#N)cnc54)C3)ncc2C#N)cnn1C [Example 89, 3-((1S,3R)-3-((5-Cyano-4-(1,5-dimethyl-1H-pyrazol-4-yl)pyrimidin-2-yl)amino)cyclohexyl)-3H-imidazo[4,5-b]pyridine-6-carbonitrile]	< 50 nM

The remaining lines, values ahead:

IC50	Compound
< 50 nM	CC(=O)N1CCN(c2cnc3c(c2)ncn3[C@H]2CCC[C@@H](Nc3ncc(C#N)c(-c4cnn(CC(F)F)c4)n3)C2)CC1 [Example 74, 2-(((1R,3S)-3-(6-(4-Acetylpiperazin-1-yl)-3H-imidazo[4,5-b]pyridin-3-yl)cyclohexyl)amino)-4-(1-(2,2-difluoroethyl)-1H-pyrazol-4-yl)pyrimidine-5-carbonitrile]
< 50 nM	C=C(C)c1cnc2c(c1)ncn2[C@H]1CCC[C@@H](Nc2ncc(C(F)(F)F)c(-c3cnn(CC(F)F)c3)n2)C1 [Example 78, 4-(1-(2,2-Difluoroethyl)-1H-pyrazol-4-yl)-N-((1R,3S)-3-(6-(prop-1-en-2-yl)-3H-imidazo[4,5-b]pyridin-3-yl)cyclohexyl)-5-(trifluoromethyl)pyrimidin-2-amine]
< 50 nM	FC(F)Cn1cc(-c2nc(N[C@@H]3CCC[C@H](n4cnc5cc(C6CC6)cnc54)C3)ncc2C(F)(F)F)cn1 [Example 79, N-((1R,3S)-3-(6-Cyclopropyl-3H-imidazo[4,5-b]pyridin-3-yl)cyclohexyl)-4-(1-(2,2-difluoroethyl)-1H-pyrazol-4-yl)-5-(trifluoromethyl)pyrimidin-2-amine]
< 50 nM	FC(F)Cn1cc(-c2nc(N[C@@H]3CCC[C@H](n4cnc5cc(-c6cn[nH]c6)cnc54)C3)ncc2C(F)(F)F)cn1 [Example 80, N-((1R,3S)-3-(6-(1H-Pyrazol-4-yl)-3H-imidazo[4,5-b]pyridin-3-yl)cyclohexyl)-4-(1-(2,2-difluoroethyl)-1H-pyrazol-4-yl)-5-(trifluoromethyl)pyrimidin-2-amine]
< 50 nM	Cn1cc(-c2cnc3c(c2)ncn3[C@H]2CCC[C@@H](Nc3ncc(C(F)(F)F)c(-c4cnn(CC(F)F)c4)n3)C2)cn1 [Example 81, 4-(1-(2,2-Difluoroethyl)-1H-pyrazol-4-yl)-N-((1R,3S)-3-(6-(1-methyl-1H-pyrazol-4-yl)-3H-imidazo[4,5-b]pyridin-3-yl)cyclohexyl)-5-(trifluoromethyl)pyrimidin-2-amine]
< 50 nM	FC(F)Cn1cc(-c2nc(N[C@@H]3CCC[C@H](n4cnc5cc(-c6cccnc6)cnc54)C3)ncc2C(F)(F)F)cn1 [Example 82, 4-(1-(2,2-Difluoroethyl)-1H-pyrazol-4-yl)-N-((1R,3S)-3-(6-(pyridin-3-yl)-3H-imidazo[4,5-b]pyridin-3-yl)cyclohexyl)-5-(trifluoromethyl)pyrimidin-2-amine]
< 50 nM	FC(F)Cn1cc(-c2nc(N[C@@H]3CCC[C@H](n4cnc5cc(N6CCCC6)cnc54)C3)ncc2C(F)(F)F)cn1 [Example 83, 4-(1-(2,2-Difluoroethyl)-1H-pyrazol-4-yl)-N-((1R,3S)-3-(6-(pyrrolidin-1-yl)-3H-imidazo[4,5-b]pyridin-3-yl)cyclohexyl)-5-(trifluoromethyl)pyrimidin-2-amine]
< 50 nM	CN(C)c1cnc2c(c1)ncn2[C@H]1CCC[C@@H](Nc2ncc(C(F)(F)F)c(-c3cnn(CC(F)F)c3)n2)C1 [Example 84, 3-((1S,3R)-3-((4-(1-(2,2-Difluoroethyl)-1H-pyrazol-4-yl)-5-(trifluoromethyl)pyrimidin-2-yl)amino)cyclohexyl)-N,N-dimethyl-3H-imidazo[4,5-b]pyridin-6-amine]
< 50 nM	N#Cc1cccc2ncn([C@H]3CCC[C@@H](Nc4ncc(C(F)(F)F)c(-c5cnn(CC(F)F)c5)n4)C3)c12 [Example 87, 1-((1S,3R)-3-((4-(1-(2,2-Difluoroethyl)-1H-pyrazol-4-yl)-5-(trifluoromethyl)pyrimidin-2-yl)amino)cyclohexyl)-1H-benzo[d]imidazole-7-carbonitrile]
